Here are results for five molecules from publication PMC10900215 (JACS Au, 2024).

The target in data set [1] is T1, METTL3-14 (Homo sapiens, UniProt Q86U44). Kind of data set: Cellular degradation assay (Western blot) in KASUMI-1. Type of data set: cell-based. Also on record: METTL3–14 degradation up to 70% of the endogenous level; endogenous in cells; host or cells: MOLM-13, KASUMI-1, THP-1, NOMO-1. As to conditions: KASUMI-1, 2 μM, 24 h. The procedure:
(§1) MOLM-13, NOMO-1, THP-1, Kasumi-1, PC3, and DU145 cell lines were obtained from DSMZ-German Collection of Microorganisms and Cell Cultures GmbH. Cells were cultured in RPMI 1640 medium (11875093, Thermo Fisher Scientific) containing 10% FBS (16140071, Thermo Fisher Scientific) and 1% penicillin-streptomycin (15140122, Thermo Fisher Scientific) in 5% CO2 at 37 °C in a humidified incubator, with maintained cell densities at 0.5–1 × 10^6 cells/mL. All cell lines were tested negative for mycoplasma contamination (PCR-based assay by Microsynth, Switzerland).
(§2) METTL3 (and METTL14) protein degradation was monitored by Western blot. Cells were treated with the indicated concentration of PROTACs or DMSO control (0.1% (v/v)) for 24h, 37 °C with 5% CO2. Samples were then collected and lysed with RIPA buffer with added protease inhibitors (11697498001, Roche). After SDS-PAGE, proteins were transferred to a nitrocellulose membrane, blocked (with 5% milk, 0.5% BSA in TBST buffer), and incubated overnight with primary antibodies. The following antibodies were used: GAPDH (no. 2118, Cell Signaling, 1:4000), β-actin (ab8226, Abcam, 1:2000), METTL3 (ab195352, Abcam, 1:1000), and METTL14 (ab220031, Abcam, 1:1000). Membranes were scanned using an LI-COR Odyssey DLx imager after incubation with appropriate secondary antibodies (antimouse IgG IRDye 680RD (926–68072, LI-COR, 1:10000) and goat anti-Rabbit IgG IRDye 800CW (926–32211, LI-COR, 1:10000)). Densitometry was performed in Image Studio Lite software and analyzed in GraphPad Prism 9.
In general terms: Immunoblotting shows a protein as a band on a membrane.
Target sequence in this assay (Q86U44 2-580 limits assumed): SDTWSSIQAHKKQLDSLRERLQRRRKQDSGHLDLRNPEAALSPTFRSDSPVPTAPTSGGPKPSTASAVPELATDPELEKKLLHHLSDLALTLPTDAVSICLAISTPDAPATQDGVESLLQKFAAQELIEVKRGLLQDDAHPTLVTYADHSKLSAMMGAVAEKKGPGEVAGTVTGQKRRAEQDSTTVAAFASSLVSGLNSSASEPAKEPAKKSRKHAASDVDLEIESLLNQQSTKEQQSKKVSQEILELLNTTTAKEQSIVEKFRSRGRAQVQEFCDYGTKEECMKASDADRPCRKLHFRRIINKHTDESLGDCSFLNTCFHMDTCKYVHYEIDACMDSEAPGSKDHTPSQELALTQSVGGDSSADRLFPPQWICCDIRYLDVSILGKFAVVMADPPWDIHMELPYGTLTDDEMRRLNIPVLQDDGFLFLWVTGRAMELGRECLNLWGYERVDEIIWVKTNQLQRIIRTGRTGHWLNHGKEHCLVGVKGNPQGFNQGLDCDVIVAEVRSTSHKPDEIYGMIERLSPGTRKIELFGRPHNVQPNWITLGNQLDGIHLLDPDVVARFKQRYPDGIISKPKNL
Target sequence in this assay (Q9HCE5 whole entry partner): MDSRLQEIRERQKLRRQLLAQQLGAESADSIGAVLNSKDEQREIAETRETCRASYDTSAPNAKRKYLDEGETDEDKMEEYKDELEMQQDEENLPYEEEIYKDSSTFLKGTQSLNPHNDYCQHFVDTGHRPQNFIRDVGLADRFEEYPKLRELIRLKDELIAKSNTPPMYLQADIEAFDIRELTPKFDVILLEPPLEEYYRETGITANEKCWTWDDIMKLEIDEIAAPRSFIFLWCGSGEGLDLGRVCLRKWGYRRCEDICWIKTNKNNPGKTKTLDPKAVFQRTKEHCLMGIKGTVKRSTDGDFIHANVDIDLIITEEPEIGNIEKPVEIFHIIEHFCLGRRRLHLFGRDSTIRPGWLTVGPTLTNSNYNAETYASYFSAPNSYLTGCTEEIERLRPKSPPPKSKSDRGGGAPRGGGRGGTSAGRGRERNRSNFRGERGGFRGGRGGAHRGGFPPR

In data set [2] the target is T1, METTL3-14. Kind of data set: Cellular degradation assay (Western blot) in THP-1. As to conditions: THP-1, 2 μM, 24 h. Also on record: METTL3–14 degradation up to 70% of the endogenous level; endogenous in cells; host or cells: MOLM-13, KASUMI-1, THP-1, NOMO-1. In kind it is cell-based. The method, then:
as §1, §2
Target sequence in this assay (Q86U44 2-580 limits assumed): as the sequence (Q86U44 2-580 limits assumed) above
Target sequence in this assay (Q9HCE5 whole entry partner): as the sequence (Q9HCE5 whole entry partner) above

The target of data set [3] is T1, METTL3-14. Kind of data set: biochemical. Also on record: with the full-length complex, the recombinant complex construct pFastBacDual-StrepII-GFP-TEV-METTL3-His-TEV-METTL14 was expressed; StrepII (N); GFP (N); TEV site (N); made in house; host or cells: baculovirus/Sf9 insect cells. The following applies: inhibition of catalytic activity of METTL3-14, binary FRET assay. A digest of the protocol: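 Full-length human METTL3–METTL14 complex (StrepII-GFP-METTL3-His/METTL14) expressed in baculovirus/Sf9 cells and purified. Inhibition of METTL3 methyltransferase activity measured in a homogeneous time-resolved fluorescence (HTRF) enzyme assay; IC50 determined.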
Target sequence in this assay (Q86U44 whole entry): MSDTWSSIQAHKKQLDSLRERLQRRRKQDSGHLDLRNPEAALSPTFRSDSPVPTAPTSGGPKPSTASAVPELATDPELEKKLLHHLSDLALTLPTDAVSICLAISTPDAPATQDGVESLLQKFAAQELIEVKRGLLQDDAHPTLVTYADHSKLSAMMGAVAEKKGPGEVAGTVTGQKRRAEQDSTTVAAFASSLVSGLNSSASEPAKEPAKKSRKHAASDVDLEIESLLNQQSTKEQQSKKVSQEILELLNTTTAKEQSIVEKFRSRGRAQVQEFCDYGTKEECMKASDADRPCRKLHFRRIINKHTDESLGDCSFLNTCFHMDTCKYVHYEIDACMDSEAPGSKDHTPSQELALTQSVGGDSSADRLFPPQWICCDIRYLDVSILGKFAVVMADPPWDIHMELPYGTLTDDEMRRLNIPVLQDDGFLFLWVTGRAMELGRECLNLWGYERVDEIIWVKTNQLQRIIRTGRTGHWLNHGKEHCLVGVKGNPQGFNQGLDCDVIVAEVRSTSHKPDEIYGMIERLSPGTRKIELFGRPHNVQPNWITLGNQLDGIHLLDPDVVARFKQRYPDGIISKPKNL
Target sequence in this assay (Q9HCE5 whole entry, further chain): as the sequence (Q9HCE5 whole entry partner) above

The target in data set [4] is T2, METTL3 (Homo sapiens, UniProt Q86U44).
T2 construct: METTL3–14 degradation up to 70% of the endogenous level; endogenous in cells; host or cells: MOLM-13, PC3, DU145
T2 sequence (Q86U44 2-580 limits assumed): as the sequence (Q86U44 2-580 limits assumed) above
T2 sequence (Q9HCE5 whole entry partner): as the sequence (Q9HCE5 whole entry partner) above
Kind of data set: Cellular degradation assay (Western blot) in DU145. Type of data set: cell-based. As to conditions: DU145, 2 μM, 24 h. The method, then: as §1, §2

For data set [5], the target named is T2, METTL3. Kind of data set: Cellular degradation assay (Western blot), METTL3 in MOLM-13. The following applies: for MOLM-13 West. blot at 24h 2 μM comp conc. Degradation (%) of METTL3: MOLM-13, 24 h, 2 μM compound. In kind it is cell-based. A digest of the protocol: (§3)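 Densitometric Western blot quantification of METTL3 and METTL14 protein gave the degradation read-out. Before lysis, cells had been incubated with PROTACs at the indicated concentrations for 24h at 37 °C, alongside a 0.1% DMSO vehicle.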

Data set [6] has as its system METTL14. As to the kind of experiment: Cellular degradation assay (Western blot), METTL14 in MOLM-13. In kind it is cell-based, human. The following applies: MOLM-13, 24 h, 2 μM compound. A digest of the protocol:
as §3

The subject of data set [7] is PC3 cell line. Kind of data set: Cell viability assay (CellTiter-Glo) on PC3. In kind it is cell-based, human. The method, then:
as §1
Cells were seeded in white clear-bottom 96-well plates at a density of 6–20 × 10^3 cells/well in 50 μL of the complete RPMI medium and treated with 50 μL of increasing concentrations of the indicated compounds dissolved in DMSO (final concentration of compounds 0.01–10 μM) or DMSO only as a negative control (0.01% (v/v)) and incubated for 72 h at 37 °C with 5% CO2. Cell viability was determined using a CellTiter-Glo luminescent cell viability assay (Promega) based on the detection of ATP according to the manufacturer’s instructions. 100 μL of the reagent was added to each well and incubated for 10 min at room temperature. The luminescence was recorded using a Tecan Infinite […] M1000 microplate reader from the top. Background luminescence value was obtained from wells containing the CellTiter-Glo reagent and medium without cells. The resulting data was analyzed in GraphPad Prism 9.
(ATP-based viability assays read luminescence as a measure of living cells.)

Data set [8] is described as follows: Cell viability assay (CellTiter-Glo) on MOLM-13. In kind it is cell-based. The following applies: human, MOLM-13 cells, average of two biological replicates; for viability at 72 h, […]: 2.5 µM. A digest of the protocol:
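MOLM-13 AML cells grown in RPMI 1640 with 10% FBS at 37 °C, 5% CO2. Viability read as ATP luminescence by CellTiter-Glo after 10 min at room temperature, with background from cell-free medium wells subtracted.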

Where “and” joins values, the source holds several entries; their conditions need not be identical. Identical values can stand only once.

Usually IC50 stands for the midpoint of a concentration-inhibition curve. What is called viability is a read-out of living cells in per cent, often relative to untreated cells. On to `CC1(C)CCN(Cc2cc(F)c(N3CC(=O)NC4(CCN(c5cc(NCC6CCN(C(=O)CCCCCNc7cccc8c7C(=O)N(C7CCC(=O)NC7=O)C8=O)CC6)ncn5)CC4)C3)cc2F)CC1` (stereo not shown) [Compound 24], for which, in data set [1], the “degradation of both METTL3 and METTL14 relative to MOLM-13” value is recorded as “higher degradation”. For the same molecule, the “degradation levels of METTL3 and METTL14” value in data set [2] was “comparable to those in MOLM-13”. Also, in data set [3], the half-inhibitory concentration (IC50) amounted to 58 ± 12 nM. The “effect on METTL3 level” value in data set [4] is “only a minor effect”. Further, the “MOLM-13 West. blot at 24h 2 μM comp conc. Degradation (%) of METTL3” value (“MOLM-13 West. blot … (%) of METTL3” for short) in data set [5] was 36% and 36 ± 9%. Also, the “MOLM-13 West. blot at 24h 2 μM comp conc. Degradation (%) of METTL14” value (shortened to “MOLM-13 West. blot … (%) of METTL14”) in data set [6] was found to be 50 ± 13%. Besides, the antiproliferative effect result in data set [7] is listed as “antiproliferative effect”. In addition, in data set [8], the viability at 72 h, 0.6 µM worked out at 102%; the viability at 72 h, 1.25 µM came out at 95.2%; the viability at 72 h, […] stood at 109%; the viability at 72 h, 5 µM was determined as 104%. Besides, the viability at 72 h, 10 µM in data set [8] is 91%.

Turning to `CC1(C)CCN(Cc2cc(F)c(N3CC(=O)NC4(CCN(c5cc(NCc6cccc(CNC(=O)CCCCCCCCCCn7cc(CNc8cccc9c8C(=O)N(C8CCC(=O)NC8=O)C9=O)nn7)c6)ncn5)CC4)C3)cc2F)CC1` (stereo not shown) [Compound 20], in data set [1], the “degradation of both METTL3 and METTL14 relative to MOLM-13” value is “higher degradation”. In addition, in data set [2], the “degradation levels of METTL3 and METTL14” value was “comparable to those in MOLM-13”. Moreover, the half-inhibitory concentration (IC50) in data set [3] came out at 200 ± 30 nM. The “effect on METTL3 level” value in data set [4] is reported as “only a minor effect”. In addition, in data set [5], the “MOLM-13 West. blot … (%) of METTL3” value was 42% and 42 ± 13%. The “MOLM-13 West. blot … (%) of METTL14” value in data set [6] was 51% and 51 ± 10%. Moreover, in data set [8], the viability at 72 h, 0.6 µM is 101%; the viability at 72 h, 1.25 µM was 94.6%; the viability at 72 h, […] worked out at 90.7%; the viability at 72 h, 5 µM came to 89.5%. Besides, the viability at 72 h, 10 µM in data set [8] came out at 86.4%.

Take `CC1(C)CCN(Cc2cc(F)c(N3CC(=O)NC4(CCN(c5cc(NCCN6CCN(C(=O)CCCCCNc7cccc8c7C(=O)N(C7CCC(=O)NC7=O)C8=O)CC6)ncn5)CC4)C3)cc2F)CC1` (stereo not shown) [Compound 30]: in data set [1], the “degradation of both METTL3 and METTL14 relative to MOLM-13” value is listed as “higher degradation”; the “degradation of the POI” value worked out at 70%. Moreover, in data set [2], the “degradation levels of METTL3 and METTL14” value is reported as “comparable to those in MOLM-13”. Moreover, in data set [3], the IC50 worked out at 27 ± 6 nM. Also, the “effect on METTL3 level” value in data set [4] is reported as “only a minor effect”. Besides, the antiproliferative effect result in data set [7] is “antiproliferative effect”. Also, in data set [8], the viability at 72 h, 0.6 µM turned out to be 91.3%; the viability at 72 h, 1.25 µM is 90.9%; the viability at 72 h, […] is 91.1%; the viability at 72 h, 5 µM came out at 82.5%. Besides, the viability at 72 h, 10 µM in data set [8] came out at 78.4%.

Consider `CC1(C)CCN(Cc2cc(F)c(N3CC(=O)NC4(CCN(c5cc(NCC6CCN(C(=O)CCCNc7cccc8c7C(=O)N(C7CCC(=O)NC7=O)C8=O)CC6)ncn5)CC4)C3)cc2F)CC1` (stereo not shown) [Compound 22], for which the “degradation of both METTL3 and METTL14 relative to MOLM-13” value in data set [1] was “higher degradation”. In addition, the “degradation levels of METTL3 and METTL14” value in data set [2] is “comparable to those in MOLM-13”. Further, the IC50 in data set [3] stood at 11 ± 1 nM. In addition, the “effect on METTL3 level” value in data set [4] is on record as “only a minor effect”. In addition, the “MOLM-13 West. blot … (%) of METTL3” value in data set [5] was 46% and 46 ± 6%. In data set [6], the “MOLM-13 West. blot … (%) of METTL14” value turned out to be 55 ± 11%. Also, the antiproliferative effect entry in data set [7] is “antiproliferative effect”. In data set [8], the viability at 72 h, 0.6 µM was determined as 95.8%; the viability at 72 h, 1.25 µM came out at 97.8%; the viability at 72 h, […] amounted to 96.2%; the viability at 72 h, 5 µM was 88.4%. Further, the viability at 72 h, 10 µM in data set [8] came to 77.4%.

For `CC1(C)CCN(Cc2cc(F)c(N3CC(=O)NC4(CCN(c5cc(NCc6cccc(CNC(=O)CCCNc7cccc8c7C(=O)N(C7CCC(=O)NC7=O)C8=O)c6)ncn5)CC4)C3)cc2F)CC1` (stereo not shown) [Compound 14], the “degradation of both METTL3 and METTL14 relative to MOLM-13” value in data set [1] is recorded as “higher degradation”. Moreover, the “degradation levels of METTL3 and METTL14” value in data set [2] is given as “comparable to those in MOLM-13”. Also, the IC50 in data set [3] turned out to be 11 ± 1 nM. For the same molecule, in data set [4], the “effect on METTL3 level” value is given as “only a minor effect”. The “METTL3 reduction at highest effect in concentration dependence” value in data set [5] (MOLM-13, 1 μM) was “around 50%”. The “MOLM-13 West. blot … (%) of METTL3” value in data set [5] was 52% and 52 ± 8%. For the same molecule, in data set [6], the “MOLM-13 West. blot … (%) of METTL14” value was 52% and 52 ± 6%. For the same molecule, in data set [8], the viability at 72 h, 0.6 µM worked out at 95.5%; the viability at 72 h, 1.25 µM turned out to be 97.5%; the viability at 72 h, […] turned out to be 103%; the viability at 72 h, 5 µM was found to be 102%. Moreover, in data set [8], the viability at 72 h, 10 µM amounted to 94.1%.
